“Also recorded” adds a separate entry of the source.
Key:
HeLa cells = experiment: GSL synthesis by 3H-sphingosine metabolic labelling; assay type: cell-based
[1] = tested on: 3XHA-Gb3S and 3XHA-GM3S distribution; experiment: Immunofluorescence localization of HA-GM3S and HA-Gb3S; assay type: cell-based; conditions: BFA 5 μg/ml 30 min
Experimental: All immunofluorescence experiments were performed as described previously^1,14. Images are confocal optical slices obtained using an LSM 710 (Zeiss) confocal microscope. Colocalization analysis was performed as described in^14 or by using an object-based colocalization method included in the JACoP v2.0 application for ImageJ^16. In brief, individual mini-stacks in nocodazole-treated cells were considered as objects, whose mass-center position was calculated after segmentation, the perfect coincidence of mass-center positions for two distinct labelling (i.e. Gb3S/TGN46, or GM3S/TGN46) in a single ministack was considered as a positive colocalization event.

FAPP2-HIS-SUMO-C-212 = molecular target: T1, FAPP2-HIS-SUMO-C-212 (Homo sapiens, UniProt Q96JA3); experiment: FRET GlcCer transfer assay with FAPP2-C212 (384-well); assay type: biochemical; conditions: for inhibition of FAPP2 transfer activity: 50 uM compound
T1 construct: the recombinant FAPP2 protein is FAPP2-GLTP-C212 or FAPP2 Full-Length (FL)
T1 sequence (Q96JA3 310-519 limits assumed): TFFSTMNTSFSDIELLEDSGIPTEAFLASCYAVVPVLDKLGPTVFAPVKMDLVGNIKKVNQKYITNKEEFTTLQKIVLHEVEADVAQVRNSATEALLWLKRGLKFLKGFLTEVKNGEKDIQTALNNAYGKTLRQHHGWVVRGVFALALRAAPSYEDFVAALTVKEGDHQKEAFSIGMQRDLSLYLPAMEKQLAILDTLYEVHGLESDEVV
Experimental: (§1) FAPP2 transfer activity has been evaluated using Fluorescence Resonance Energy Transfer. The FRET assay involves mixing of acceptor vesicles (formed by sonication of 1,2-dioleoyl-sn-glycero-3-phosphocholine (DOPC) suspended in buffer) with donor vesicles containing TopFLUOR-labeled GlcCer (1 mole %) and Di1C18 used as quencher (3 mole %), and recombinant FAPP2 protein (0.5 uM). Recovery of emission intensity at 520 nm (excitation at 485 nm) occurs during FAPP2-mediated transfer of GlcosylCeramide from quenched donor vesicles to unquenched acceptor vesicles. The assay has been performed using FAPP2-GLTP-C212 or FAPP2 Full-Length (FL). In order to conduct the high throughput inhibitor screen, the transfer activity assay was adapted to a microplate format (384 well plate) and read using Synergy Neo HTS Multi-Mode Microplate Reader. First, mixture containing 30 ul of acceptor small unilamellar vesicles, FAPP2 transport protein, and drug in buffer was added to each well in triplicate and read for 1 min to calculate the fluorescence baseline. Then 30 ul donor vesicles were added to each well and read for 15 or 30 mins. Since the increase in fluorescence emission occurs exclusively in presence of FAPP2 transport, the inhibition rate of each compound is evaluated by its ability to decrease the fluorescence emission.

FAPP2-FL-SUMO = molecular target: T2, FAPP2-FL-SUMO (Homo sapiens, UniProt Q96JA3); experiment: FRET-based GlcCer transfer assay, Example 8 (96-well, full-length FAPP2); assay type: biochemical; conditions: for competition with the GlcCer transfer activity of FAPP2: final concentration 10 uM
T2 construct: FAPP2-FL-SUMO (recombinant FAPP2 full length protein tagged with small ubiquitin-related modifier); made in house; host or cells: Rosetta cells (E. coli, own knowledge)
T2 sequence (Q96JA3 1-519): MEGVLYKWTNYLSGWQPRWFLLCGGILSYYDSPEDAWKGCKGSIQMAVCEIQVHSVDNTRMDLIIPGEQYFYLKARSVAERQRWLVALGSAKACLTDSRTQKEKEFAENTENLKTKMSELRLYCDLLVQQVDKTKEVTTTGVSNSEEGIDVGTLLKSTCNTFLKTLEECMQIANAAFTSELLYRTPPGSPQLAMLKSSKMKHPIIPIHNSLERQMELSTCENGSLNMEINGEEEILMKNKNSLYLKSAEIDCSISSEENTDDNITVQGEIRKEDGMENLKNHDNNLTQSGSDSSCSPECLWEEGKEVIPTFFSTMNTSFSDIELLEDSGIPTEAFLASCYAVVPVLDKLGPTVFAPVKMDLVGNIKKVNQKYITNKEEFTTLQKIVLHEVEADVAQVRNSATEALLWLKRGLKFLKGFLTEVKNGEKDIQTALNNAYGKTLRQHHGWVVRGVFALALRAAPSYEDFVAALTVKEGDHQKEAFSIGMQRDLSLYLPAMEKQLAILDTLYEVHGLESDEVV
Experimental: Specifically, acceptor vesicles (formed by sonication of 1,2-dioleoyl-sn-glycero-3-phosphocholine (DOPC) were suspended in 10 mM NaH2PO4 buffer, pH 7.4, containing 1 mM dithiothreitol and 1 mM EDTA) and were incubated with donor vesicles containing BODIPY-labeled GlcCer (1 or 2 mole %, as indicated) and Di1C18 used as quencher (3 mole %), and recombinant FAPP2 protein (at the indicated concentrations).
Recovery of emission intensity at 520 nm (excitation at 485 nm) occurred during protein-mediated transfer of GlcCer from quenched donor vesicles to unquenched acceptor vesicles.
Phlorizin and Dapagliflozin were resuspended in DMSO (100 mM). The assay was conducted at four different concentrations (1 mM, 500 uM, 200 uM, 100 uM). Both FAPP2 WT and FAPP2 W407A were used to highlight possible non-specific effects of the drugs on fluorescence emission. First, mixture that contained FAPP2, acceptor small unilamellar vesicles and drug in buffer were added to 96 well plates, the plate was immediately loaded into the plate reader. Following 2 sec of shaking, the fluorescence emission @520 nm (excitation 485 nm) was measured at 10 sec intervals for 5 mins to calculate the baseline fluorescence. Then, donor vesicles were added to each well and read again for the indicated time. The experiments were repeated at least 3 times and each measurement performed in triplicate.
To screen and identify small molecules for drug development for Fabry disease treatment, a miniaturized FRET-based in vitro screening assay was developed to screen for small molecules that can inhibit FAPP2. The miniaturized FRET-based in vitro screening assay tests the ability of FAPP2 to transfer GlcCer from donor to acceptor and identifies small molecules able to inhibit the transfer activity of FAPP2. The flFAPP2 was produced as Sumo-fusion protein and assayed in Rosetta cells.

FAPP2-FL-SUMO-HIS = molecular target: T3, FAPP2-FL-SUMO-HIS (Homo sapiens, UniProt Q96JA3); experiment: FRET GlcCer transfer assay with full-length FAPP2 (Example 9); assay type: biochemical; conditions: 50 uM compound; FAPP2-FL-SUMO-HIS at 0.5 uM; measured for 15 mins
T3 construct: The assay has been performed using FAPP2-GLTP-C212 or FAPP2 Full-Length (FL); made in house; host or cells: Rosetta cells (E. coli, own knowledge)
T3 sequence (Q96JA3 1-519): T2 sequence (Q96JA3 1-519)
Experimental: as §1

[2] = tested on: ts045 VSV-G (VSVG) transport; assay type: cell-based; conditions: dicoumarol 200 μM
[3] = FAPP2-C212 at 0.5 uM, measured for 30 mins

C[C@H]1CCC/C=C/[C@@H]2C[C@H](O)C[C@H]2[C@H](O)/C=C/C(=O)O1 [BFA, Brefeldin A]
Gb3 synthesis (HeLa cells; BFA 5 μg/mL): decreased
GM3 synthesis (HeLa cells; BFA 5 μg/mL, parental cells): but not that of GM3
GM3 synthesis (HeLa cells; HeLa cells overexpressing GM3S (HeLa-GM3S), BFA 5 μg/mL): became sensitive
redistribution of GM3S to the ER [1]: redistributed

CCc1oc2ccccc2c1C(=O)c1cc(Br)c(O)c(Br)c1 [Benzbromarone]
ranking as FAPP2 inhibitor in vitro (FAPP2-HIS-SUMO-C-212): one of the most potent FAPP2 inhibitors
inhibition of FAPP2 transfer activity (FAPP2-HIS-SUMO-C-212; [3]): 80%

CCCCCCCCCCCCC/C=C/[C@@H](O)[C@H](COC1OC(CO)C(O)C(O)C1O)NC(=O)CCCCCCC (some centres unmarked) [C8-GlcCer]
competition with the GlcCer transfer activity of FAPP2 (FAPP2-FL-SUMO): able to inhibit transfer by competition
competition with the GlcCer transfer activity of FAPP2 (FAPP2-FL-SUMO; listed as C8-G1Cer): competes

CC(C)=CCC/C(C)=C/CC/C(C)=C/Cc1c(O)cc(C)c(C(=O)O)c1O [Grifolic Acid]
ranking as FAPP2 inhibitor in vitro (FAPP2-HIS-SUMO-C-212): most active FAPP2 inhibitor in vitro
effect on FAPP2-mediated GlcCer transfer (FAPP2-HIS-SUMO-C-212; 50 uM, FAPP2-C212 at 0.5 uM, measured for 30 mins): significantly reduced
effect on FAPP2-mediated GlcCer transfer (FAPP2-HIS-SUMO-C-212; 100 uM, FAPP2-C212 at 0.5 uM, measured for 30 mins): significantly reduced

O=C(O)Cn1nnc(-c2cc(N3CCC(Oc4cc(F)ccc4Br)CC3)no2)n1 [MK-8245]
inhibition of FAPP2 transfer activity (FAPP2-FL-SUMO-HIS): 40%

O=C(CCc1ccc(O)cc1)c1c(O)cc(O)cc1O[C@@H]1O[C@H](CO)[C@@H](O)[C@H](O)[C@H]1O [Phlorizin]
inhibition of GlcCer transfer activity of FAPP2 (FAPP2-FL-SUMO; four drug concentrations (100 uM, 200 uM, 500 uM, 1 mM)): can inhibit; also recorded: inhibits the GlcCer transfer

O=C(Nc1cccc2c(=O)cc(-c3nn[nH]n3)oc12)c1ccc(OCCCCc2ccccc2)cc1 [Pranlukast]
inhibition of FAPP2 transfer activity (FAPP2-HIS-SUMO-C-212; [3]): 90%

CCOc1cc(CC(=O)N[C@@H](CC(C)C)c2ccccc2N2CCCCC2)ccc1C(=O)O [Repaglinide]
inhibition of FAPP2 transfer activity (FAPP2-FL-SUMO-HIS): 50%

Cc1cc(OCCCS(C)(=O)=O)cc(C)c1-c1cccc(COc2ccc3c(c2)OCC3CC(=O)O)c1 (centres unmarked) [TAK-875]
effect on FAPP2-mediated GlcCer transfer (FAPP2-HIS-SUMO-C-212; 100 uM, FAPP2 at 0.5 uM, measured for 15 mins): significantly reduced

CCSc1ccc2c(c1)N(CCCN1CCN(C)CC1)c1ccccc1S2 [Thiethylperazine]
inhibition of FAPP2 transfer activity (FAPP2-HIS-SUMO-C-212; [3]): 60%

COc1cc(C(=O)NS(=O)(=O)c2ccccc2C)ccc1Cc1cn(C)c2ccc(NC(=O)OC3CCCC3)cc12 [Zafirlukast]
inhibition of FAPP2 transfer activity (FAPP2-HIS-SUMO-C-212; [3]): 90%

O=c1oc2ccccc2c(O)c1Cc1c(O)c2ccccc2oc1=O [dicoumarol]
GM3 synthesis (HeLa cells; dicoumarol 200 μM, 3 hours 3H-sphingosine pulse): strongly inhibited
intra-Golgi progression of VSVG [2]: suppressed

— patent publication US20160250221A1, “INHIBITORS OF FAPP2 AND USES THEREOF” (FONDAZIONE TELETHON, priority 2013, published 2016)
